Reference: patent US20080207614A1, “QUINAZOLINE DERIVATIVES FOR THE TREATMENT AND PREVENTION OF DIABETES AND OBESITY” (SK CHEMICALS CO., LTD., priority 2004, published 2008)

Legend:
[1] = system: C2C12 muscle cells; experiment: Analysis of glucose absorption (2-deoxyglucose) in differentiated C2C12 muscle cells; assay type: cell-based; details: test materials 10 μM, times relative to control group
How it was run: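 Uptake of 0.2 μCi 2-deoxyglucose over 20 min, counted radiometrically in lysed cells. Before tracer, compounds (10 μM) were applied for 30 min to C2C12 cells differentiated 6 days in 1% serum and equilibrated 3 h in 5 mM glucose KRB.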

[2] = system: AMPK; experiment: Measurement of AMPK activity by Western blot in C2C12 cells; assay type: cell-based; parameters: key to AMPK activity (degree of phosphorylation of serine-79 and threonine-172): fold increase in threonine-172 phosphorylation; details: 10 μM for 50 minutes, no superscript: Western blot of serine-79 and threonine-172 phosphorylation
How it was run: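 Western blot readout of AMPK Thr-172 and ACC Ser-79 phosphorylation, normalised against ERK, served as the activity measure. Cells were C2C12 after differentiation, treated 50 minutes with 10 μM test material. Grading by Thr-172 increase: ≥3-fold strong, 1-3-fold mild, <1-fold weak.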

COc1ccc(CNc2nc(N3CCN(C)CC3)nc3ccccc23)cc1OC [Compound 302, (3,4-Dimethoxybenzyl)-[2-(4-methylpiperazino-1-yl)-quinazolino-4-yl]-amine]
Glucose absorption [1]: 0.7
AMPK activity (degree of phosphorylation of serine-79 and threonine-172) [2]: 1.2

COc1cc(CNc2nc(N3CCCC3)nc3ccccc23)cc(OC)c1 [Compound 303, (3,5-Dimethoxybenzyl)-(2-pyrrolidino-1-ylquinazolino-4-yl)-amine]
Glucose absorption [1]: 1.0
AMPK activity (degree of phosphorylation of serine-79 and threonine-172) [2]: 1.0

COc1cc(CNc2nc(N3CCCCC3)nc3ccccc23)cc(OC)c1 [Compound 304, (3,5-Dimethoxybenzyl)-(2-piperidino-1-ylquinazolino-4-yl)-amine]
Glucose absorption [1]: 0.8
AMPK activity (degree of phosphorylation of serine-79 and threonine-172) [2]: 1.4

COc1cc(CNc2nc(N3CCOCC3)nc3ccccc23)cc(OC)c1 [Compound 305, (3,5-Dimethoxybenzyl)-(2-morpholino-4-ylquinazolino-4-yl)-amine]
Glucose absorption [1]: 0.8
AMPK activity (degree of phosphorylation of serine-79 and threonine-172) [2]: 2.1

COc1cc(CNc2nc(N3CCN(C)CC3)nc3ccccc23)cc(OC)c1 [Compound 306, (3,5-Dimethoxybenzyl)-[2-(4-methylpiperazino-1-yl)-quinazolino-4-yl]-amine]
Glucose absorption [1]: 0.8
AMPK activity (degree of phosphorylation of serine-79 and threonine-172) [2]: 1.7

c1ccc2c(NCc3ccc4c(c3)OCO4)nc(N3CCCC3)nc2c1 [Compound 307, Benzo[1,3]dioxol-5-ylmethyl-(2-pyrrolidino-1-ylquinazolino-4-yl)-amine]
Glucose absorption [1]: 0.8
AMPK activity (degree of phosphorylation of serine-79 and threonine-172) [2]: 2.0

c1ccc2c(NCc3ccc4c(c3)OCO4)nc(N3CCCCC3)nc2c1 [Compound 308, Benzo[1,3]dioxol-5-ylmethyl-(2-piperidino-1-ylquinazolino-4-yl)-amine]
Glucose absorption [1]: 0.8
AMPK activity (degree of phosphorylation of serine-79 and threonine-172) [2]: 2.2

c1ccc2c(NCc3ccc4c(c3)OCO4)nc(N3CCOCC3)nc2c1 [Compound 309, Benzo[1,3]dioxol-5-ylmethyl-(2-morpholino-4-ylquinazolino-4-yl)-amine]
Glucose absorption [1]: 0.8
AMPK activity (degree of phosphorylation of serine-79 and threonine-172) [2]: 1.3

CN1CCN(c2nc(NCc3ccc4c(c3)OCO4)c3ccccc3n2)CC1 [Compound 310, Benzo[1,3]dioxol-5-ylmethyl-[2-(4-methylpiperazino-1-yl)-quinazolino-4-yl]-amine]
Glucose absorption [1]: 0.9
AMPK activity (degree of phosphorylation of serine-79 and threonine-172) [2]: 1.6

COc1ccccc1CNc1nc(C(C)C)nc2ccccc12 [Compound 321, (2-Isopropylquinazolino-4-yl)-(2-methoxybenzyl)-amine]
Glucose absorption [1]: 1.2
AMPK activity (degree of phosphorylation of serine-79 and threonine-172) [2]: 0.9

COc1cccc(CNc2nc(C(C)C)nc3ccccc23)c1OC [Compound 322, (2,3-Dimethoxybenzyl)-(2-isopropylquinazolino-4-yl)-amine]
Glucose absorption [1]: 1.4
AMPK activity (degree of phosphorylation of serine-79 and threonine-172) [2]: 1.9

COc1cc(CNc2nc(C(C)C)nc3ccccc23)cc(OC)c1 [Compound 323, (3,5-Dimethoxybenzyl)-(2-isopropylquinazolino-4-yl)-amine]
Glucose absorption [1]: 1.1
AMPK activity (degree of phosphorylation of serine-79 and threonine-172) [2]: 1.2

COc1ccc(CNc2nc(C(C)C)nc3ccccc23)cc1OC [Compound 324, (3,4-Dimethoxybenzyl)-(2-isopropylquinazolino-4-yl)-amine]
Glucose absorption [1]: 1.3
AMPK activity (degree of phosphorylation of serine-79 and threonine-172) [2]: 2.3

COc1cc(CNc2nc(C(C)C)nc3ccccc23)cc(OC)c1OC [Compound 325, (2-Isopropylquinazolino-4-yl)-(3,4,5-trimethoxybenzyl)-amine]
Glucose absorption [1]: 1.2
AMPK activity (degree of phosphorylation of serine-79 and threonine-172) [2]: 2.2

COc1ccc(OC)c(CNc2nc(C(C)C)nc3ccccc23)c1 [Compound 326, (2,5-Dimethoxybenzyl)-(2-isopropylquinazolino-4-yl)-amine]
Glucose absorption [1]: 1.2
AMPK activity (degree of phosphorylation of serine-79 and threonine-172) [2]: 2.9

COc1cc(OC)c(CNc2nc(C(C)C)nc3ccccc23)c(OC)c1 [Compound 327, (2-Isopropylquinazolino-4-yl)-(2,4,6-trimethoxybenzyl)-amine]
Glucose absorption [1]: 1.3
AMPK activity (degree of phosphorylation of serine-79 and threonine-172) [2]: 4.4

COc1ccccc1CNc1nc(Cc2ccccc2)nc2ccccc12 [Compound 328, (2-Benzylquinazolino-4-yl)-(2-methoxybenzyl)-amine]
Glucose absorption [1]: 1.4
AMPK activity (degree of phosphorylation of serine-79 and threonine-172) [2]: 3.8

COc1cccc(CNc2nc(Cc3ccccc3)nc3ccccc23)c1OC [Compound 329, (2-Benzylquinazolino-4-yl)-(2,3-dimethoxybenzyl)-amine]
Glucose absorption [1]: 1.8
AMPK activity (degree of phosphorylation of serine-79 and threonine-172) [2]: 4.2

COc1cc(CNc2nc(Cc3ccccc3)nc3ccccc23)cc(OC)c1 [Compound 330, (2-Benzylquinazolino-4-yl)-(3,5-dimethoxybenzyl)-amine]
Glucose absorption [1]: 1.2
AMPK activity (degree of phosphorylation of serine-79 and threonine-172) [2]: 1.7

COc1cc(CNc2nc(-c3ccco3)nc3ccccc23)cc(OC)c1 [Compound 343, (3,5-Dimethoxybenzyl)-(2-furano-2-ylquinazolino-4-yl)-amine]
Glucose absorption [1]: 1.3
AMPK activity (degree of phosphorylation of serine-79 and threonine-172) [2]: 0.8

COc1cc(CNc2nc(-c3ccco3)nc3ccccc23)cc(OC)c1OC [Compound 345, (2-Furano-2-ylquinazolino-4-yl)-(3,4,5-trimethoxybenzyl)-amine]
Glucose absorption [1]: 1.3
AMPK activity (degree of phosphorylation of serine-79 and threonine-172) [2]: 1.1

COc1cccc(CNc2nc(-c3cccs3)nc3ccccc23)c1OC [Compound 353, (2,3-Dimethoxybenzyl)-(2-thiopenyl-2-ylquinazolino-4-yl)-amine]
Glucose absorption [1]: 1.2
AMPK activity (degree of phosphorylation of serine-79 and threonine-172) [2]: 0.8

COc1ccc(CNc2nc(-c3cccs3)nc3ccccc23)cc1OC [Compound 355, (3,4-Dimethoxybenzyl)-(2-thiopenyl-2-ylquinazolino-4-yl)-amine]
Glucose absorption [1]: 1.2
AMPK activity (degree of phosphorylation of serine-79 and threonine-172) [2]: 1.1

COc1ccccc1CNc1nc(C(OC)c2ccccc2)nc2ccccc12 (stereo not shown) [Compound 360, (2-Methoxybenzyl)-[2-(methoxyphenylmethyl)-quinazolino-4-yl]-amine]
Glucose absorption [1]: 1.4
AMPK activity (degree of phosphorylation of serine-79 and threonine-172) [2]: 2.2

COc1cccc(CNc2nc(C(OC)c3ccccc3)nc3ccccc23)c1 (stereo not shown) [Compound 361, (3-Methoxybenzyl)-[2-(methoxyphenylmethyl)-quinazolino-4-yl]-amine]
Glucose absorption [1]: 1.3
AMPK activity (degree of phosphorylation of serine-79 and threonine-172) [2]: 2.1

COc1ccc(CNc2nc(C(OC)c3ccccc3)nc3ccccc23)cc1 (stereo not shown) [Compound 362, (4-Methoxybenzyl)-[2-(methoxyphenylmethyl)-quinazolino-4-yl]-amine]
Glucose absorption [1]: 1.2
AMPK activity (degree of phosphorylation of serine-79 and threonine-172) [2]: 2.6

COC(c1ccccc1)c1nc(NCc2ccc3c(c2)OCO3)c2ccccc2n1 (stereo not shown) [Compound 363, Benzo[1,3]dioxol-5-ylmethyl-[2-(methoxyphenylmethyl)-quinazolino-4-yl]-amine]
Glucose absorption [1]: 1.3
AMPK activity (degree of phosphorylation of serine-79 and threonine-172) [2]: 1.4

COc1cccc(CNc2nc(C(OC)c3ccccc3)nc3ccccc23)c1OC (stereo not shown) [Compound 364, (2,3-Dimethoxybenzyl)-[2-(methoxyphenylmethyl)-quinazolino-4-yl]-amine]
Glucose absorption [1]: 1.3
AMPK activity (degree of phosphorylation of serine-79 and threonine-172) [2]: 1.2

COc1ccc(CNc2nc(C(OC)c3ccccc3)nc3ccccc23)c(OC)c1 (stereo not shown) [Compound 368, (2,4-Dimethoxybenzyl)-[2-(methoxyphenylmethyl)-quinazolino-4-yl]-amine]
Glucose absorption [1]: 1.1
AMPK activity (degree of phosphorylation of serine-79 and threonine-172) [2]: 5.9

COc1ccc(OC)c(CNc2nc(C(OC)c3ccccc3)nc3ccccc23)c1 (stereo not shown) [Compound 369, (2,5-Dimethoxybenzyl)-[2-(methoxyphenylmethyl)-quinazolino-4-yl]-amine]
Glucose absorption [1]: 1.1
AMPK activity (degree of phosphorylation of serine-79 and threonine-172) [2]: 4.5

COc1cc(OC)c(CNc2nc(C(OC)c3ccccc3)nc3ccccc23)c(OC)c1 (stereo not shown) [Compound 370, [2-(Methoxyphenylmethyl)-quinazolino-4-yl]-(2,4,6-trimethoxybenzyl)-amine]
Glucose absorption [1]: 1.3
AMPK activity (degree of phosphorylation of serine-79 and threonine-172) [2]: 7.7

COc1ccccc1CNc1nc(C(C)c2ccccc2)nc2ccccc12 (stereo not shown) [Compound 371, (2-Methoxybenzyl)-[2-(1-phenylethyl)-quinazolino-4-yl]-amine]
Glucose absorption [1]: 1.2
AMPK activity (degree of phosphorylation of serine-79 and threonine-172) [2]: 2.8

COc1cccc(CNc2nc(C(C)c3ccccc3)nc3ccccc23)c1 (stereo not shown) [Compound 372, (3-Methoxybenzyl)-[2-(1-phenylethyl)-quinazolino-4-yl]-amine]
Glucose absorption [1]: 1.1
AMPK activity (degree of phosphorylation of serine-79 and threonine-172) [2]: 6.3

COc1ccc(CNc2nc(C(C)c3ccccc3)nc3ccccc23)cc1 (stereo not shown) [Compound 373, (4-Methoxybenzyl)-[2-(1-phenylethyl)-quinazolino-4-yl]-amine]
Glucose absorption [1]: 1.1
AMPK activity (degree of phosphorylation of serine-79 and threonine-172) [2]: 2.1

CC(c1ccccc1)c1nc(NCc2ccc3c(c2)OCO3)c2ccccc2n1 (stereo not shown) [Compound 374, Benzo[1,3]dioxol-5-ylmethyl-[2-(1-phenylethyl)-quinazolino-4-yl]-amine]
Glucose absorption [1]: 1.1
AMPK activity (degree of phosphorylation of serine-79 and threonine-172) [2]: 1.9
